Test results published in patent US20100143994A1, “PROCESS FOR FERMENTIVE PREPARATION OF ALCOHOLS AND RECOVERY OF PRODUCT” (E. I. DU PONT DE MEMOURS AND COMPANY, priority 2008, published 2010).

Legend:
[1] = test system: Saccharomyces cerevisiae (W1362 20A); assay: Scale-up (25 mL broth) fermentation with ionic liquid, glucose uptake and ethanol production over five hours; type: cell-based; conditions: 5 volume percent ionic liquid, five hour time span, FIG. 2
Method: Cultures were again prepared using the same growth conditions as described above except that the total broth volume was 25 mL. The selected ionic liquids were added to a container of each broth in an amount of 5 volume percent. In these experiments, small samples were withdrawn from the broth for HPLC analysis periodically over a five hour time span to get a better idea of the extent of metabolic activity after ionic liquid addition as well as to provide information on glucose consumption and product formation. […] The calculation of GUI was made as described above, and amount of ethanol produced was taken directly from the HPLC data.

[2] = Extraction of ethanol from an aqueous solution by ionic liquid; type: physicochemical; conditions: 3 mL aqueous solution about 31 g/L ethanol, 5 vol % ionic liquid, overnight equilibration
Method: (§1) Ethanol and isobutanol concentration in the solution was measured using HPLC as described above following thorough mixing and overnight equilibration of the contents of the vial.

[3] = Extraction of isobutanol from an aqueous solution by ionic liquid; type: physicochemical; conditions: 3 mL aqueous solution about 31 g/L isobutanol, 5 vol % ionic liquid, overnight equilibration
Method: as §1

Compound | ethanol production throughout the fermentation run [1] | glucose uptake (GUI) throughout the fermentation run [1] | Ethanol (mM) in solution after equilibration [2] | Isobutanol (mM) in solution after equilibration [3]
1-butyl-3-methylpyrrolidinium bis(trifluoromethylsulfonyl)imide [Example 15] | remained robust | remained robust | 676 mM | 391 mM
1-ethyl-3-methylimidazolium bis(trifluoromethylsulfonyl)imide [Example 6] | remained robust | remained robust | 670 mM | 389 mM
1-hexyl-3-methylimidazolium bis(trifluoromethylsulfonyl)imide [Example 9] | remained robust | remained robust | 678 mM | 388 mM
CCCCCCn1cc[n+](C)c1.FC(F)(F)C(F)(F)[P-](F)(F)(F)(C(F)(F)C(F)(F)F)C(F)(F)C(F)(F)F [Example 1, 1-hexyl-3-methylimidazolium tris(pentafluoroethyl)trifluorophosphate] | remained robust | remained robust | 680 mM | 404 mM
